# “Also recorded” adds a separate entry of the source.
# Tests used:
# HSV-2 strain G = experiment: CPE inhibition, HSV-2 strain G in HEp-2 cells; note: key: +++ = Complete cytopathic effect; ++ = Moderate cytopathic effect; + = Minimum cytopathic effect; − = No cytopathic effect; format: cell-based, herpes simplex virus type 2; conditions: conc. per compound (ng/ml)
# Description: (§1) Human laryngeal epithelial carcinoma cells (HEp-2, ATCC, Rockville, Md.) were used for testing of antiviral compounds by cytopathic effect (CPE) inhibition and plaque reduction assay. Primary human foreskin fibroblast cells (HFF) obtained from Dr. E. R. Kern (Department of Pediatrics, University of Alabama Medical School, 309 Bevill Biomedical Research Building, 845 19th Street South, Birmingham, Ala., 35294-2170), were used for cytopathic effect (CPE) inhibition assay. HEp-2, African green monkey kidney cells (Vero, ATCC), HFF and primary rabbit kidney cells were used to determine the cytotoxic effect of compounds of formula I. These cells were propagated in Dulbeco's modified Eagle's medium (DMEM) (Sigma, USA) supplemented with 10% inactivated fetal calf serum (FCS), 25 mM HEPES, 0.2% sodium bicarbonate and 1% penicillin/-streptomycin at 37° C. in the presence of 5% CO2.
# (§2) The antiviral activity of the test compounds was determined against HSV-1 strain F, HSV-2 strain G (ATCC), HSV-1 strain E-377 and HSV-2 strain MS (Dr. E. R. Kern, see above), CMV strain AD 169 (NIH), HCMV (NIH), MCMV (NIH), and VZV strain Ellen (NIH). Highly infective virus stocks of HSV-1 and HSV-2 were prepared by infecting a confluent monolayer of HEp-2 (ATCC) or HFF in 150 cm^2 plastic tissue culture flasks (Falcon, USA) at a multiplicity of infection of 0.5 in DMEM supplemented with 10% inactivated fetal calf serum and 1% penicillin/streptomycin at 37° C. in the presence of 5% CO2. The infected cells were disrupted through three freeze/thaw cycles, and viruses were clarified from large cell debris by low speed centrifugation at 3000 rpm for 10 minutes. The virus suspension was separated, aliquoted and stored at −80° C. until assayed or used for animal infection. The stock HSV-1 (E377) and HSV-2 (MS strain) contained 3.5×10^8 and 1.1×10^7 pfu/ml respectively.
# (§3) Low passage HFF cells were seeded into 96-well tissue culture plates 24 hours prior to use at a cell concentration of 2.5×10^4 cells per ml in 0.2 ml of DMEM supplemented with 10% fetal calf serum. After 24 hours of incubation at 37° C. in the presence of 5% CO2, medium was removed and the test compounds were diluted two-fold in DMEM in the 96-well tissue culture plate containing monolayer. […] For both HSV-1 and HSV-2 assays, the virus concentration utilized was 1000 pfu/ml and for HCMV, MCMV, and VZV assay 2500 pfu/ml were used. The plates were then incubated at 37° C. in the presence of 5% CO2 for two to three days for HSV-1 and HSV-2, 10 days for VZV and 14 days for HCMV and MCMV. The virus induced cytopathic effect (CPE) was monitored microscopically every day. CPE of HSV-1 was recognized by cell rounding and clumping, while HSV-2 formed large syncytia along with rounding and clumping of cells. […] EC50s were estimated from graphical plots of percent CPE against the concentration of the test compounds. The EC50s for each compound are the mean of EC50s for three or more independent experiments. After three days of incubation period, media was aspirated and the cells stained with a 0.1% crystal violet solution for 30 minutes. The stain was then removed and the plates were rinsed with tap water, air dried and retained.
# HSV-1 strain F = experiment: CPE inhibition, HSV-1 strain F in HEp-2 cells; note: key: +++ = Complete cytopathic effect; ++ = Moderate cytopathic effect; + = Minimum cytopathic effect; − = No cytopathic effect; format: cell-based, herpes simplex virus type 1; conditions: conc. per compound (ng/ml)
# Description: as §1, §2, §3
# [1] = Cytotoxic effect in Vero cell line; format: cell-based, African green monkey; conditions: African green monkey, Vero cells; Vero cell line
# Protocol: as §1, with “Primary human foreskin fibroblast cells (HFF) obtained from Dr. E. R. Kern (Department of Pediatrics, University of Alabama Medical School, 309 Bevill Biomedical Research Building, 845 19th Street South, Birmingham, Ala., 35294-2170), were used for cytopathic effect (CPE) inhibition assay.” left out
# (§4) HFF, Vero and HEp-2 cells were seeded in 24-well tissue culture plates at a concentration of […] in DMEM containing 10% FCS and incubated for 24 hours at 37° C. in the presence of 5% CO2. To the monolayer of these cells 0.5, 1.0, 1.5 and 2.0 ml of solution of antiviral compounds were added in the respective wells in duplicate and the cells were then incubated in a 5% CO2 incubator at 37° C. for 72 hours. The cells were observed daily for any change in morphology. […] At the end of this time, the media-drug solution was removed and the cells washed. One ml of 0.25% trypsin was added to each well and incubated until the cells start to come off of the plate. The cells-media mixture was then pipetted up and down several times to resuspend the cells and 0.2 ml of the cell suspension was added to 9.8 ml of trypan blue and cells were counted using hemocytometer. Each sample was counted three times with three replicate wells per sample.
# Vero cells = experiment: Cytotoxic effect in Vero cell line; format: cell-based, African green monkey; conditions: African green monkey kidney (Vero) cells
# Protocol: as §1, with “Primary human foreskin fibroblast cells (HFF) obtained from Dr. E. R. Kern (Department of Pediatrics, University of Alabama Medical School, 309 Bevill Biomedical Research Building, 845 19th Street South, Birmingham, Ala., 35294-2170), were used for cytopathic effect (CPE) inhibition assay.” left out
# as §4
# [2] = Cell proliferation assay (cytotoxicity) in HFF cells; format: cell-based, human; conditions: primary human foreskin fibroblast (HFF) cells; Human foreskin fibroblast cells; reduces growth of uninfected cells by 50%
# Protocol: as §1, with “Primary human foreskin fibroblast cells (HFF) obtained from Dr. E. R. Kern (Department of Pediatrics, University of Alabama Medical School, 309 Bevill Biomedical Research Building, 845 19th Street South, Birmingham, Ala., 35294-2170), were used for cytopathic effect (CPE) inhibition assay.” left out
# as §4
# [3] = test system: Primary human foreskin fibroblast cells (HFF); experiment: as above; format: cell-based; conditions: HFF cells; solution conc. per compound (ng/ml) (Acyclovir 250); 2.0 ml dose
# Protocol: as §1, with “Primary human foreskin fibroblast cells (HFF) obtained from Dr. E. R. Kern (Department of Pediatrics, University of Alabama Medical School, 309 Bevill Biomedical Research Building, 845 19th Street South, Birmingham, Ala., 35294-2170), were used for cytopathic effect (CPE) inhibition assay.” left out
# as §4
# HSV-2 strain MS = experiment: CPE inhibition assay, HSV-2 MS in human foreskin fibroblast cells; format: cell-based, herpes simplex virus type 2; for Qualitative CPE at 2.0 ml dose HSV-2 MS: key: +++ = Complete cytopathic effect; ++ = Moderate cytopathic effect; + = Minimum cytopathic effect; − = No cytopathic effect
# Protocol: (§5) Stock solutions of the compounds used for the testing of antiviral activity against HSV-1 and HSV-2 were prepared in distilled water, filtered through 0.2 μm filter (Acrodisco®, Gelman Sciences, USA) and stored at room temperature until used.
# as §1, §2, §3
# [4] = test system: Human laryngeal epithelial carcinoma cells (HEp-2); experiment: Cytotoxicity in HEp-2 cells; format: cell-based
# Protocol: as §1, with “Primary human foreskin fibroblast cells (HFF) obtained from Dr. E. R. Kern (Department of Pediatrics, University of Alabama Medical School, 309 Bevill Biomedical Research Building, 845 19th Street South, Birmingham, Ala., 35294-2170), were used for cytopathic effect (CPE) inhibition assay.” left out
# as §4
# [5] = Cytotoxic effect in primary rabbit kidney cells; format: cell-based; conditions: primary rabbit kidney cells; Primary Rabbit Kidney cell line
# Protocol: as §1, with “Primary human foreskin fibroblast cells (HFF) obtained from Dr. E. R. Kern (Department of Pediatrics, University of Alabama Medical School, 309 Bevill Biomedical Research Building, 845 19th Street South, Birmingham, Ala., 35294-2170), were used for cytopathic effect (CPE) inhibition assay.” left out
# as §4
# [6] = test system: Primary Rabbit Kidney cells; experiment: Cytotoxic effect in primary rabbit kidney cells; format: cell-based; conditions: primary rabbit kidney cells
# Protocol: as §1, with “Primary human foreskin fibroblast cells (HFF) obtained from Dr. E. R. Kern (Department of Pediatrics, University of Alabama Medical School, 309 Bevill Biomedical Research Building, 845 19th Street South, Birmingham, Ala., 35294-2170), were used for cytopathic effect (CPE) inhibition assay.” left out
# as §4
# HSV-2 (strain G) = experiment: Plaque reduction assay, HSV-2 strain G in HEp-2 cells; format: cell-based, herpes simplex virus type 2; conditions: conc. per compound (ng/ml) (Acyclovir 250), HSV-2 virus control 47
# Protocol: HEp-2 cells were grown to monolayer in 24 well tissue culture plates in DMEM containing 10% fetal calf serum at 37° C. for 24-36 hours in the presence of 5% CO2. The monolayer of HEp-2 cells was infected with 0.1 ml of HSV- 1 (strain F) or HSV-2 (strain G) containing 100 pfu. The viruses were allowed to adsorb for 1 hour at 37° C. in the presence of 5% CO2. All wells containing virus infected cells except virus control were overlaid with 0.9 ml of DMEM and 1 ml of test compound. The virus control and cell control received DMEM only. All microtiter plates were incubated at 37° C. in the presence of 5% CO2 and observed twice daily for 72 hours for viral CPE. At the end of the experiment, plates were stained with 0.1% crystal violet and the results were quantified by counting plaque forming units.
# HSV-1 strain E-377 = experiment: CPE inhibition assay, HSV-1 E377 in human foreskin fibroblast cells; format: cell-based, herpes simplex virus type 1; for Qualitative CPE at 2.0 ml dose HSV-1 E377: key: +++ = Complete cytopathic effect; ++ = Moderate cytopathic effect; + = Minimum cytopathic effect; − = No cytopathic effect
# Protocol: as §5, §1, §2, §3
# [7] = HFF cells, solution conc. per compound (ng/ml) (Acyclovir 250), 2.0 ml dose
structure (smiles),measurement,setting,value
"CC1(C)CCC23CC[C@]4(C)C(CCC5[C@@]6(C)CCC(O)C(C)(C)C6CC[C@]54C)C2C1OC3 (stereo partly drawn) [Allobetulin, 3β-hydroxy-19αH-19,28-epoxy-oleanane]",Cytopathic Effect (CPE) Inhibition HSV-2 Strain G,HSV-2 strain G,++
same,Cytopathic Effect (CPE) Inhibition HSV-1 Strain F,HSV-1 strain F,++
same,CC50 at 72 h,[1],0.3 mg/L
same,cytotoxicity (in words),Vero cells,generally not toxic
same,CC50 at 72 h,[2],0.3 mg/L
same,Qualitative Cytotoxic Effect at 2.0 ml dose,[3],−
same,EC50 HSV-2 MS,HSV-2 strain MS; CPE inhibition in HFF cells,0.225 mg/L
same,Qualitative CPE at 2.0 ml dose HSV-2 MS,HSV-2 strain MS; [7],++
same,EC50,"HSV-2 strain MS; Human alphaherpesvirus 2, HFF, CPE inhibition in HFF cells, read-out: EC50 HSV-2 MS",~0.225 mg/L
same,cytotoxicity (in words),[4]; HEp-2 (human epithelial) cells,less cytotoxicity; also recorded: generally not toxic
same,Cell Cytotoxicity,"[4]; HEp-2 cells, conc. per compound (ng/ml)",−
same,CC50 at 72 h,[5],> 0.3 mg/L
same,cytotoxicity (in words),[6],No cytotoxicity; also recorded: generally not toxic
same,Plaque Reduction Assay Average pfu/10^5 Cells HSV-2 Strain G,HSV-2 (strain G),17 pfu/10^5 Cells
same,EC50 HSV-1 E377,HSV-1 strain E-377; CPE inhibition in HFF cells,0.3 mg/L
same,Qualitative CPE at 2.0 ml dose HSV-1 E377,HSV-1 strain E-377; [7],+++
same,EC50,"HSV-1 strain E-377; Human alphaherpesvirus 1, HFF, CPE inhibition in HFF cells, read-out: EC50 HSV-1 E377",~0.3 mg/L
